The text below walks through data of PMC4110927 (Virology, 2013).

In one experiment the target is soluble HLA-B*0702 (Homo sapiens, UniProt P01889). Put plainly: Fluorescence polarization. It counts as binding.
A further experiment concerns the target soluble HLA-A*0201 (Homo sapiens, UniProt P04439, D140Y/D185E/D98H/E176V/E277Q/G131W/G231S/I119V/I121R/I166T/I218V/L300P/L318F/N151K/N90K/P208A/P217A/Q86G/Q94H/R138H/R169H/T345S). In words: Fluorescence polarization. It counts as binding. In general terms: Polarisation of emitted light reports the rotation of a fluorescent probe.
The test system of experiment [1] is autologous PBMC of subject 8. In words: Memory. It counts as cell-based, human.
The target of experiment [2] is soluble HLA A*0201 or B*0702 (allele not stated for the peptide family). In words: fluorescence polarisation.
The mark [3] stands for this setting: over the course of infection, time points as worded.

Values joined by “and” are separate entries in the source; they are usually repeats but may differ in a detail not shown here. Equal values may be shown once. Where a SMILES comes first, the peptide text is derived from it. Where no end group is shown, it is not given here.

`CC(C)C[C@H](NC(=O)[C@@H]1CCCN1C(=O)[C@@H](NC(=O)[C@H](CCC(N)=O)NC(=O)[C@@H]1CCCN1C(=O)[C@H](CCCNC(=N)N)NC(=O)[C@@H](NC(=O)[C@@H]1CCCN1C(=O)[C@@H](N)Cc1ccccc1)C(C)C)C(C)C)C(=O)O`: 6.76 µM corresponded to half-maximal inhibition against soluble HLA-B*0702 (IC50).
As for `CC(C)C[C@H](NC(=O)[C@H](CCCCN)NC(=O)[C@H](Cc1ccccc1)NC(=O)[C@H](CS)NC(=O)[C@H](Cc1c[nH]c2ccccc12)NC(=O)CNC(=O)[C@H](Cc1ccccc1)NC(=O)[C@@H](NC(=O)[C@H](CC(C)C)NC(=O)[C@@H]1CCCN1)[C@@H](C)O)C(=O)O`, on soluble HLA-A*0201, 3020 µM corresponded to half-maximal inhibition (IC50).
`CC[C@H](C)[C@H](NC(=O)[C@H](CCCNC(=N)N)NC(=O)[C@H](CCCCN)NC(=O)[C@H](CCCNC(=N)N)NC(=O)[C@@H](NC(=O)[C@H](CC(N)=O)NC(=O)[C@H](CC(N)=O)NC(=O)[C@H](CC(N)=O)NC(=O)[C@@H]1CCCN1C(=O)[C@@H](N)CCCNC(=N)N)[C@@H](C)O)C(=O)O` showed an IC50 against soluble HLA-B*0702 of 20.9 µM.
On the same count and under the same terms, next, `CC(C)C[C@H](NC(=O)[C@@H](NC(=O)[C@H](CCCNC(=N)N)NC(=O)[C@@H]1CCCN1C(=O)[C@@H](N)CO)[C@@H](C)O)C(=O)N[C@@H](CC(N)=O)C(=O)N[C@@H](C)C(=O)N[C@@H](Cc1c[nH]c2ccccc12)C(=O)N[C@H](C(=O)O)C(C)C`: 15.1 µM.
`CC(C)C[C@H](NC(=O)[C@@H](N)[C@@H](C)O)C(=O)N[C@@H](CC(N)=O)C(=O)N[C@@H](C)C(=O)N[C@@H](Cc1c[nH]c2ccccc12)C(=O)N[C@H](C(=O)N[C@@H](CCCCN)C(=O)N[C@H](C(=O)N[C@H](C(=O)O)C(C)C)C(C)C)C(C)C` had an IC50 on soluble HLA-A*0201 of 14.5 µM.
`CC[C@H](C)[C@H](NC(=O)CNC(=O)[C@@H]1CCCN1C(=O)CNC(=O)[C@@H]1CCCN1C(=O)[C@@H](N)[C@@H](C)O)C(=O)N[C@@H](CCCNC(=N)N)C(=O)N[C@@H](Cc1ccccc1)C(=O)N1CCC[C@H]1C(=O)N[C@@H](CC(C)C)C(=O)O` showed an IC50 against soluble HLA-B*0702 of 2.51 µM.
The same measure, in the same setting: next, `CC[C@H](C)[C@H](NC(=O)CNC(=O)[C@@H]1CCCN1C(=O)CNC(=O)[C@@H]1CCCN1C(=O)[C@@H](N)[C@@H](C)O)C(=O)N[C@@H](CCCNC(=N)N)C(=O)N[C@@H](Cc1ccc(O)cc1)C(=O)N1CCC[C@H]1C(=O)N[C@H](C(=O)O)C(C)C`: 5.5 µM; `CC(C)C[C@H](NC(=O)[C@@H]1CCCN1C(=O)[C@H](Cc1ccccc1)NC(=O)[C@H](CCCNC(=N)N)NC(=O)[C@@H]1CCCN1C(=O)CNC(=O)[C@@H]1CCCN1C(=O)CNC(=O)[C@@H]1CCCN1C(=O)[C@@H](N)[C@@H](C)O)C(=O)O`: 4.57 µM.
Compound `CC(C)C[C@H](NC(=O)[C@@H]1CCCN1C(=O)[C@H](Cc1ccccc1)NC(=O)[C@H](CCCNC(=N)N)NC(=O)[C@@H](NC(=O)CNC(=O)[C@@H]1CCCN1C(=O)CNC(=O)[C@@H]1CCCN1C(=O)[C@@H](N)[C@@H](C)O)[C@@H](C)O)C(=O)O` had an IC50 on soluble HLA-B*0702 of 2.88 µM.
For `CC(C)C[C@H](NC(=O)[C@@H]1CCCN1C(=O)[C@H](Cc1ccc(O)cc1)NC(=O)[C@H](CCCNC(=N)N)NC(=O)[C@@H](NC(=O)CNC(=O)[C@@H]1CCCN1C(=O)CNC(=O)[C@@H]1CCCN1C(=O)[C@@H](N)[C@@H](C)O)C(C)C)C(=O)O`, 4.37 µM corresponded to half-maximal inhibition against soluble HLA-B*0702 (IC50).
In the case of `CC(C)C[C@H](NC(=O)[C@H](CCCCN)NC(=O)[C@H](Cc1ccccc1)NC(=O)[C@H](CS)NC(=O)[C@H](Cc1c[nH]c2ccccc12)NC(=O)CNC(=O)[C@H](Cc1ccccc1)NC(=O)[C@H](CS)NC(=O)[C@H](CC(C)C)NC(=O)[C@@H]1CCCN1)C(=O)O` (H-PLCFGWCFKL-OH; N-terminus and C-terminus assumed), in experiment [1] (setting [3]), the “memory T cell response (IFN-γ ELISPOT), in words” value was “no-to-low memory responses”.
In the case of `CSCC[C@H](NC(=O)[C@@H]1CCCN1)C(=O)N[C@@H](CS)C(=O)N[C@@H](Cc1ccccc1)C(=O)NCC(=O)N[C@@H](Cc1c[nH]c2ccccc12)C(=O)N[C@@H](CS)C(=O)N[C@@H](Cc1ccccc1)C(=O)N[C@@H](CCCCN)C(=O)N[C@@H](CC(C)C)C(=O)O` (H-PMCFGWCFKL-OH; N-terminus and C-terminus assumed), the “memory T cell response (IFN-γ ELISPOT), in words” value in experiment [1] (early cART / following cART (8.3–10.1 yr)) is given as “recovered during therapy”; in experiment [1] (late cART (>12.4 yr)), “eventual loss”; in experiment [1] (setting [3]), “no-to-low memory responses”.
Regarding `CSCC[C@H](NC(=O)[C@@H]1CCCN1C(=O)[C@@H](N)CCCNC(=N)N)C(=O)N[C@H](C(=O)N[C@@H](Cc1ccc(O)cc1)C(=O)N[C@@H](CCCCN)C(=O)N[C@@H](C)C(=O)N[C@@H](C)C(=O)N[C@@H](CC(C)C)C(=O)O)[C@@H](C)O` [RPMTYKAAL], the IC50 against soluble HLA-B*0702 was 11 µM.
For the compound ALNAWVKVV, the midpoint of inhibition against soluble HLA-A*0201, the IC50, lay at 8.51 µM.
Consider Env gp160/120 341-349 […] (peptide), for which the logIC50 in experiment [2] stood at 4.36.
On to FPARPQVPL, for which the IC50 against soluble HLA-B*0702 was 4.57 µM.
On to FPIRPQVPL, for which inhibition against soluble HLA-B*0702 was half-maximal at 4.17 µM (IC50).
Take FSVRPQVPL: the IC50 on soluble HLA-B*0702 is 70.8 µM.
For Gag p24 143-151 […] (peptide), in experiment [2], the logIC50 was 4.34 and 3.92.
In turn, IGPGIAFYAT showed an IC50 against soluble HLA-A*0201 of 813 µM.
At soluble HLA-A*0201, IGPGRAFYAA had an IC50 of 30.2 µM.
For the compound IGPGRAFYAT, at soluble HLA-A*0201, half-maximal inhibition (IC50) was put at 437 µM.
As for IGSGRAFYAT, 3630 µM corresponded to half-maximal inhibition against soluble HLA-A*0201 (IC50).
As for IPGPGRHPL, on soluble HLA-B*0702, the IC50 was 3.24 µM.
In the case of PITFGWCFKL, the midpoint of inhibition on soluble HLA-A*0201, the IC50, lay at 2240 µM.
For PLNAWVKVV, the IC50 on soluble HLA-A*0201 was 64.6 µM.
The same measure, in the same setting: as for PLTLGWCFKL, the figure is 1260 µM.
Turning to PPRTLNAWV, on soluble HLA-B*0702, inhibition was half-maximal at 16.6 µM (IC50).
On soluble HLA-A*0201, PVTFGWCFKL gave an IC50 of 3020 µM.
In turn, RPITYKAAL [RPITYKAAL] gave an IC50 at soluble HLA-B*0702 of 7.41 µM.
On soluble HLA-B*0702, RPMTCKGAL [RPMTCKGAL] had an IC50 of 5.5 µM.
Consider RPMTRKAAL [RPMTRKAAL], for which the IC50 at soluble HLA-B*0702 is 6.61 µM.
Compound RPMTWKAAL [RPMTWKAAL] had an IC50 against soluble HLA-B*0702 of 7.24 µM.
Take RPMTWKGAL [RPMTWKGAL]: at soluble HLA-B*0702, the IC50 is 7.08 µM.
In the case of RPMTYKGAL [RPMTYKGAL], on soluble HLA-B*0702, the IC50 is 7.76 µM.
In turn, RPNNDTRKSI gave an IC50 against soluble HLA-B*0702 of 7.08 µM.
On the same count and under the same terms, next, RPNNNTGKRI: 22.9 µM; RPNNNTRKCI: 42.7 µM.
Take RPNNNTRKSI: the IC50 on soluble HLA-B*0702 was 3.63 µM.
Compound RPNNNTRKSL showed an IC50 against soluble HLA-B*0702 of 4.9 µM.
Still for that read-out and setting: next, RPNNNTRKST: 11 µM.
The compound RPNNNTRRSI had an IC50 at soluble HLA-B*0702 of 9.77 µM.
Compound RPNNSTRKSI had an IC50 on soluble HLA-B*0702 of 7.41 µM.
For RPSNNTRKRI, the IC50 on soluble HLA-B*0702 is 14.8 µM.
RPTNNTRKSI gave an IC50 at soluble HLA-B*0702 of 5.62 µM.
In turn, RSNNNTRKSI had an IC50 at soluble HLA-B*0702 of 21.4 µM.
SLFNTIATL: at soluble HLA-A*0201, the midpoint of inhibition, the IC50, lay at 8.32 µM.
Same read-out and setting: as for SLFNTVAAL [SLFNTVAAL], the figure is 6.92 µM.
On soluble HLA-A*0201, SLFNTVATL showed an IC50 of 6.46 µM.
Compound SLFNTVATP had an IC50 on soluble HLA-A*0201 of 174 µM.
At soluble HLA-B*0702, SPRALNAWV gave an IC50 of 11.7 µM.
Regarding SPRPLNAWV, at soluble HLA-B*0702, the IC50 is 15.1 µM.
SPRTLDAWV had an IC50 against soluble HLA-B*0702 of 24 µM.
As to SPRTLSAWV, the midpoint of inhibition at soluble HLA-B*0702, the IC50, lay at 1200 µM.
On the same count and under the same terms, next, SPVRPQVPL: 4.68 µM.
On soluble HLA-B*0702, TKGPGIRFPL had an IC50 of 257 µM.
The compound TLDAWVKVV showed an IC50 against soluble HLA-A*0201 of 20 µM.
Compound TLSAWVKVV had an IC50 on soluble HLA-A*0201 of 15.1 µM.
In turn, TPGPGIRFPI gave an IC50 at soluble HLA-B*0702 of 5.89 µM.
Same read-out and setting: as for TPGPGIRYPL, the figure is 6.03 µM.
For TPGPGIRYPM, the midpoint of inhibition against soluble HLA-B*0702, the IC50, lay at 3.16 µM.
Take TPGPGPRYPL: half-maximal inhibition against soluble HLA-B*0702 (IC50) required 5.89 µM.
On soluble HLA-B*0702, TPGPGPRYPM gave an IC50 of 3.72 µM.
TPGPGPRYPV had an IC50 at soluble HLA-B*0702 of 6.61 µM.
For the compound TPGPGTRYPL, the IC50 at soluble HLA-B*0702 is 3.72 µM.
On soluble HLA-B*0702, TSGPGTRFPL had an IC50 of 70.8 µM.

The term IC50 denotes the point on the concentration scale where inhibition reaches its midpoint. A lower IC50 goes with greater potency.
